What was measured:
[1] = animal models; cited from earlier work
[2] = Personal experience of capsaicin use; type: in vivo; conditions: humans
[3] = cited from earlier work
[4] = cited from earlier work; remark: listed apart in the source

Structure (SMILES)	endurance capacity [1]	lipolysis [1]	effects of use on energy, exercise capacity, endurance, mood, appetite, alertness [2]	solubility in water [3]	mean half-life in plasma ([4]; healthy individuals)	blood-brain barrier passage ([4]; in vivo)
COc1cc(CNC(=O)CCCC/C=C/C(C)C)ccc1O [Capsaicin]	increase endurance capacity	promote lipolysis	boosts energy, increases exercise capacity, increases endurance, improves mood, decreases appetite and increases alertness	only slightly soluble in water	–	–
Cn1c(=O)c2c(ncn2C)n(C)c1=O [caffeine]	–	–	–	–	about 5 hours	readily crosses the blood-brain barrier

Source: US20080268092A1, “Capsaicin Nutritional Supplement” (priority 2004, published 2008)
